# Results published in ChEMBL document CHEMBL3885861, “Open TG-GATES”.
# Species: Rattus norvegicus
# Test: Open TG-GATES - Regimen: Single
# Format: toxicity, organism-based, Sprague-Dawley
# Set-up: regimen Single, gender Male, age 6 weeks
# Settings: in vivo, po, 3 mg/kg, route gavage, dose level Low; for APTT / Bas / Eos / Fbg / Hb / Ht / Lym / MCH / MCHC / MCV / Mono / Neu / PT / Plat / RBC / Ret / WBC: tissue Blood; for KIDNEY_L / KIDNEY_R / KIDNEY_TOTAL: tissue Kidney; for LIVER: tissue Liver; for A/G / ALP / ALT / AST / BUN / CRE / Ca / Cl / DBIL / GLC / IP / K / LDH / Na / PL / RALB / TBIL / TC / TG / TP / gamma-GTP: tissue Plasma
smiles,measurement,setting,value
C=CCO [ALLYL ALCOHOL],TERMINAL_BW,3 h,223.5 g
same,APTT,3 h,18.8 s
same,Bas,3 h,0%
same,Eos,3 h,1%
same,Fbg,3 h,234.6 mg/dL
same,Hb,3 h,13.8 g/dL
same,Ht,3 h,38.7%
same,Lym,3 h,76%
same,MCH,3 h,21.7 pg
same,MCHC,3 h,35.6%
same,MCV,3 h,60.9 fL
same,Mono,3 h,3.2%
same,Neu,3 h,19.8%
same,PT,3 h,11.8 s
same,Plat,3 h,126.8 x10_4/uL
same,RBC,3 h,635.2 x10_4/ul
same,Ret,3 h,6.4%
same,WBC,3 h,81.6 x10_2/uL
same,KIDNEY_L,3 h,1 g
same,KIDNEY_R,3 h,1 g
same,KIDNEY_TOTAL,3 h,2 g
same,LIVER,3 h,10.2 g
same,A/G,3 h,1.6
same,ALP,3 h,1094.8 IU/L
same,ALT,3 h,37.4 IU/L
same,AST,3 h,67.6 IU/L
same,BUN,3 h,11.4 mg/dL
same,CRE,3 h,0.4 mg/dL
same,Ca,3 h,11.2 mg/dL
same,Cl,3 h,100.6 meq/L
same,DBIL,3 h,0.5 mg/dL
same,GLC,3 h,195.2 mg/dL
same,IP,3 h,8.6 mg/dL
same,K,3 h,3.7 meq/L
same,LDH,3 h,235.4 IU/L
same,Na,3 h,139.8 meq/L
same,PL,3 h,181 mg/dL
same,RALB,3 h,3.5 g/dL
same,TBIL,3 h,0.6 mg/dL
same,TC,3 h,81 mg/dL
same,TG,3 h,262 mg/dL
same,TP,3 h,5.7 g/dL
same,gamma-GTP,3 h,0.6 IU/L
same,TERMINAL_BW,6 h,220.1 g
same,APTT,6 h,19 s
same,Bas,6 h,0%
same,Eos,6 h,1%
same,Fbg,6 h,220.8 mg/dL
same,Hb,6 h,13.2 g/dL
same,Ht,6 h,38.3%
same,Lym,6 h,76%
same,MCH,6 h,21 pg
same,MCHC,6 h,34.3%
same,MCV,6 h,61 fL
same,Mono,6 h,3.8%
same,Neu,6 h,18.8%
same,PT,6 h,12.2 s
same,Plat,6 h,122.5 x10_4/uL
same,RBC,6 h,627.4 x10_4/ul
same,Ret,6 h,7.1%
same,WBC,6 h,102.5 x10_2/uL
same,KIDNEY_L,6 h,0.9 g
same,KIDNEY_R,6 h,1 g
same,KIDNEY_TOTAL,6 h,1.9 g
same,LIVER,6 h,9.4 g
same,A/G,6 h,1.6
same,ALP,6 h,1095 IU/L
same,ALT,6 h,33 IU/L
same,AST,6 h,70.6 IU/L
same,BUN,6 h,7.8 mg/dL
same,CRE,6 h,0.4 mg/dL
same,Ca,6 h,10.7 mg/dL
same,Cl,6 h,102.8 meq/L
same,DBIL,6 h,0.1 mg/dL
same,GLC,6 h,192.4 mg/dL
same,IP,6 h,8.7 mg/dL
same,K,6 h,3.9 meq/L
same,LDH,6 h,222.4 IU/L
same,Na,6 h,141.2 meq/L
same,PL,6 h,149.6 mg/dL
same,RALB,6 h,3.4 g/dL
same,TBIL,6 h,0.2 mg/dL
same,TC,6 h,76.4 mg/dL
same,TG,6 h,77.8 mg/dL
same,TP,6 h,5.5 g/dL
same,gamma-GTP,6 h,1 IU/L
same,TERMINAL_BW,9 h,215.7 g
same,APTT,9 h,18.7 s
same,Bas,9 h,0%
same,Eos,9 h,1.2%
same,Fbg,9 h,221.8 mg/dL
same,Hb,9 h,13.4 g/dL
same,Ht,9 h,39.1%
same,Lym,9 h,75.8%
same,MCH,9 h,20.9 pg
same,MCHC,9 h,34.3%
same,MCV,9 h,61 fL
same,Mono,9 h,3.2%
same,Neu,9 h,20.2%
same,PT,9 h,12.2 s
same,Plat,9 h,124 x10_4/uL
same,RBC,9 h,640.4 x10_4/ul
same,Ret,9 h,6.9%
same,WBC,9 h,65 x10_2/uL
same,KIDNEY_L,9 h,1 g
same,KIDNEY_R,9 h,1 g
same,KIDNEY_TOTAL,9 h,2 g
same,LIVER,9 h,9.1 g
same,A/G,9 h,1.5
same,ALP,9 h,994.6 IU/L
same,ALT,9 h,27.6 IU/L
same,AST,9 h,59.2 IU/L
same,BUN,9 h,9.6 mg/dL
same,CRE,9 h,0.3 mg/dL
same,Ca,9 h,10.5 mg/dL
same,Cl,9 h,101.8 meq/L
same,DBIL,9 h,0.08 mg/dL
same,GLC,9 h,210.2 mg/dL
same,IP,9 h,10.7 mg/dL
same,K,9 h,3.8 meq/L
same,LDH,9 h,169.2 IU/L
same,Na,9 h,140.8 meq/L
same,PL,9 h,143 mg/dL
same,RALB,9 h,3.3 g/dL
same,TBIL,9 h,0.1 mg/dL
same,TC,9 h,71.8 mg/dL
same,TG,9 h,62 mg/dL
same,TP,9 h,5.5 g/dL
same,gamma-GTP,9 h,0.8 IU/L
same,TERMINAL_BW,24 h,232.9 g
same,APTT,24 h,20.4 s
same,Bas,24 h,0%
same,Eos,24 h,1%
same,Fbg,24 h,230 mg/dL
same,Hb,24 h,13.6 g/dL
same,Ht,24 h,39.9%
same,Lym,24 h,78.8%
same,MCH,24 h,20.5 pg
same,MCHC,24 h,34%
same,MCV,24 h,60.4 fL
same,Mono,24 h,3.4%
same,Neu,24 h,16.4%
same,PT,24 h,11.7 s
same,Plat,24 h,127.6 x10_4/uL
same,RBC,24 h,660.4 x10_4/ul
same,Ret,24 h,6.2%
same,WBC,24 h,97.6 x10_2/uL
same,KIDNEY_L,24 h,1 g
same,KIDNEY_R,24 h,1 g
same,KIDNEY_TOTAL,24 h,2 g
same,LIVER,24 h,11.2 g
same,A/G,24 h,1.5
same,ALP,24 h,863.4 IU/L
same,ALT,24 h,35 IU/L
same,AST,24 h,64.4 IU/L
same,BUN,24 h,16 mg/dL
same,CRE,24 h,0.4 mg/dL
same,Ca,24 h,10.9 mg/dL
same,Cl,24 h,101.8 meq/L
same,DBIL,24 h,0.098 mg/dL
same,GLC,24 h,202.8 mg/dL
same,IP,24 h,7.2 mg/dL
same,K,24 h,4 meq/L
same,LDH,24 h,204.6 IU/L
same,Na,24 h,141 meq/L
same,PL,24 h,154.4 mg/dL
same,RALB,24 h,3.4 g/dL
same,TBIL,24 h,0.2 mg/dL
same,TC,24 h,77 mg/dL
same,TG,24 h,118.2 mg/dL
same,TP,24 h,5.6 g/dL
same,gamma-GTP,24 h,0.8 IU/L
